Assay results published in patent publication US12138034B2, “Gastroretentive articles for alcohol sensing” (priority 2020, dated 2024).
Entries after “also recorded” stand apart in the source; their conditions may differ.

What was measured:
Type in all cases: physicochemical
[1] = Stability of DAAs in simulated gastric fluid (SGF, pH=2), HPLC
Protocol: FIGS. 17A-17C show stability of DAAs in simulated gastric fluid (SGF, pH=2), according to one set of embodiments. All DAAs were dissolved in SGF and placed in a shaking incubator (200 rpm, 37° C.). Samples were collected at defined time points for up to 4 weeks and analyzed by HPLC to quantify stability. […] FIG. 17A. Stability of sofosbuvir in SGF. FIG. 17B. Stability of daclatasvir in SGF. FIG. 17C. Stability of ribavirin in SGF. Error bars represent SD for n=3 samples in each group.

[2] = In vitro drug release from individual drug-polymer pills; settings: 37° C., 200 rpm, 50 mL fluid; varying PCL molecular weight, coating, drug loading, SA/V ratio, excipients
Source text: FIGS. 11A-11E show fabrication and in vitro release of direct-acting antivirals (DAAs) from individual drug-polymer pills, according to one set of embodiments. FIG. 11A. Drug-polymer pills are made by mixing drug with either silicone or poly(ε-caprolactone) (PCL) and then casting into a Petri dish or a three-dimensional (3-D) printed mold. Drug-silicone pills are extracted using a biopsy punch, and drug-PCL pills are extracted with a razor blade. Pills are then spray-coated with a pan coater. A cross-sectional image of a PCL-coated drug-PCL pill is shown. FIG. 11B. In vitro release of sofosbuvir from a drug pill in water with varying molecular weight of PCL. FIG. 11C. In vitro release of daclatasvir from a drug pill in water with varying molecular weight of PCL and PCL coating. FIG. 11D. In vitro release of ledipasvir from a drug pill in acetonitrile with varying silicone hardness. FIG. 11E. In vitro release of ribavirin from a drug pill in water with molecular weight of PCL and drug loading percentage. Error bars represent SD for n=3 samples.
LA-DAAS prototyping and in vitro drug release. LA-DAAS were assembled and in vitro drug release was evaluated by High-Performance Liquid Chromatography (HPLC) as previously described, with modifications including novel formulations for DAAs (FIGS. 14A-14B).(17) The following drugs were acquired: sofosbuvir (Hefei Hirisun Pharmatech Co., Ltd, Hefei, China), daclatasvir and ledipasvir (Hangzhou APIChem Technology Co, Ltd., Hangzhou, Zhejiang, China), and ribavirin (ChemShuttle, Hayward, CA). […] Drug loading percentages were determined relative to the final polymer mixture weight: sofosbuvir (50%), daclastasvir (40%), ledipasvir (40%), and ribavirin (40%). […] Drug concentrations were then analyzed using an Agilent 1260 Infinity II HPLC system. […] For evaluation of the safety and residence time of the LA-DAAS, the animals were clinically assessed twice a day for evidence of GI obstruction including inappetence, abdominal distension, lack of stool, and vomiting. […]

[3] = Stability of drug-polymer pills in SGF (polymer protection metric); settings: 3 days in SGF, 37° C., 200 rpm, n=3
Protocol: Drug-polymer pills were incubated in a shaking incubator at 37° C. and 200 rpm in 50 mL of SGF for 3 days with fluid replaced every day. Then, drug-polymer pills were transferred to acetonitrile for extraction of drug from the polymer pill. The average of extracted amount (n=3) was normalized to the average of extracted drug from drug-polymer pills placed directly in acetonitrile (n=3) to yield the polymer protection metric plotted. PCL protects 89.75% of sofosbuvir, 82.39% of daclatasvir, and 87.11% of ribavirin. Silicone protected 98.96% of ledipasvir.

Structure (SMILES) | stability in SGF ([1]; SGF pH=2, no HPLC signal detected at t=0) | in vitro release rate from drug-polymer pills (trend, words) [2] | polymer protection (drug extracted after SGF, normalized to pills placed directly in acetonitrile) ([3]; drug-silicone pill) [%] | polymer protection (drug extracted after SGF, normalized to pills placed directly in acetonitrile) ([3]; drug-PCL pill) [%] | degradation in SGF ([1]; SGF pH=2, 37° C., 200 rpm, within 7 days) [%]
COC(=O)N[C@H](C(=O)N1CC2(CC2)C[C@H]1c1ncc(-c2ccc3c(c2)C(F)(F)c2cc(-c4ccc5nc([C@@H]6[C@H]7CC[C@H](C7)N6C(=O)[C@@H](NC(=O)OC)C(C)C)[nH]c5c4)ccc2-3)[nH]1)C(C)C [ledipasvir] | degraded immediately in acid | faster release rate | 98.96 | – | –
NC(=O)c1ncn([C@@H]2O[C@H](CO)[C@@H](O)[C@H]2O)n1 [ribavirin] | – | increased at higher PCL molecular weight and with a higher drug loading percentage | – | 87.11 | –
CC(C)OC(=O)[C@H](C)N[P@](=O)(OC[C@H]1O[C@@H](n2ccc(=O)[nH]c2=O)[C@](C)(F)[C@@H]1O)Oc1ccccc1 [sofosbuvir] | – | increased as the molecular weight of PCL increased from 25,000 to 80,000; also recorded: Increasing the surface area to volume ratio of the pill also increased the sofosbuvir release rate; also recorded: increases the release rate of sofosbuvir; also recorded: Drug release increases as the SA/V ratio increases | – | 89.75 | 95
